From ChEMBL document CHEMBL4304811, “Development of a Water-Soluble Indolylmaleimide Derivative IM-93 Showing Dual Inhibition of Ferroptosis and NETosis” (ACS Med Chem Lett, 2019)

Legend:
[1] = tested on: Tyrosine-protein kinase ABL1 (Homo sapiens), P00519 [Y253F]; assay: Binding affinity to human phosphorylated ABL1 Y253F mutant (S229 to K512 residues) expressed in mammalian expression system assessed as residual binding level at 10 uM by Kinomescan method relative to control
[2] = molecular target: Calcium/calmodulin-dependent protein kinase type 1D (Homo sapiens) (UniProt Q8IU85); assay: Binding affinity to wild-type human partial length CAMK1D (M1 to K299 residues) expressed in bacterial expression system assessed as residual binding level at 10 uM by Kinomescan method relative to control
Chain of Calcium/calmodulin-dependent protein kinase type 1D (Homo sapiens) (Q8IU85 whole entry, looked up, the tested form may be a part): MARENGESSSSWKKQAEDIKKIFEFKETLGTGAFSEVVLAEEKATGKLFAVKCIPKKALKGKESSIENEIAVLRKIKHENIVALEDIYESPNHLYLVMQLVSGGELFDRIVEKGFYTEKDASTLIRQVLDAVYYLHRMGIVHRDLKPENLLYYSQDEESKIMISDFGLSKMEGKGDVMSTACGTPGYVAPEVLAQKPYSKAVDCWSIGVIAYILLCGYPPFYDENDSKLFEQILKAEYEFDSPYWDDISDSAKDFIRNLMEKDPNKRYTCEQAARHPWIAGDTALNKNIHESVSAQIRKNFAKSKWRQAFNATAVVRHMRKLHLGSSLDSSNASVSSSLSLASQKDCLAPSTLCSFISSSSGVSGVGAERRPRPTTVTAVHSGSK

[3] = molecular target: Cyclin-dependent kinase 19 (Homo sapiens) (UniProt Q9BWU1); assay: Binding affinity to wild-type human partial length CDK11 (M1 to N360 residues) expressed in bacterial expression system assessed as residual binding level at 10 uM by Kinomescan method relative to control
[4] = molecular target: Casein kinase I isoform alpha (Homo sapiens) (UniProt P48729); assay: Binding affinity to wild-type human partial length CSNK1A1 (M1 to L450 residues) expressed in mammalian expression system assessed as residual binding level at 10 uM by Kinomescan method relative to control
Chain of Casein kinase I isoform alpha (Homo sapiens) (P48729 2-337 limits assumed): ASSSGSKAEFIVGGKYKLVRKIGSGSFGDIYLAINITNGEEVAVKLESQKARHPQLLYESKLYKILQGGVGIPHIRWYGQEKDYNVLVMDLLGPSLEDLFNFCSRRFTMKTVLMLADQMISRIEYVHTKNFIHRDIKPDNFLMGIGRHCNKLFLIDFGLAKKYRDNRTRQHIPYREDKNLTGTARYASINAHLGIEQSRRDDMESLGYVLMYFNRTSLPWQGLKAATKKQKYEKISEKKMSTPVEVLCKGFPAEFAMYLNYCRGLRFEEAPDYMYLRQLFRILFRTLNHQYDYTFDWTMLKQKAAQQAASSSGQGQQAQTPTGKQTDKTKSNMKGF

[5] = tested on: Epidermal growth factor receptor (Homo sapiens), P00533 [UNDEFINED MUTATION]; assay: Binding affinity to human partial length EGFR E746-A750del mutant expressed in bacterial expression system assessed as residual binding level at 10 uM by Kinomescan method relative to control
[6] = molecular target: Ephrin type-A receptor 4 (Homo sapiens) (UniProt P54764); assay: Binding affinity to wild-type human partial length EPHA4 (T601 to R897 residues) expressed in bacterial expression system assessed as residual binding level at 10 uM by Kinomescan method relative to control
Chain of Ephrin type-A receptor 4 (Homo sapiens) (P54764 whole entry, the tested form may be a part): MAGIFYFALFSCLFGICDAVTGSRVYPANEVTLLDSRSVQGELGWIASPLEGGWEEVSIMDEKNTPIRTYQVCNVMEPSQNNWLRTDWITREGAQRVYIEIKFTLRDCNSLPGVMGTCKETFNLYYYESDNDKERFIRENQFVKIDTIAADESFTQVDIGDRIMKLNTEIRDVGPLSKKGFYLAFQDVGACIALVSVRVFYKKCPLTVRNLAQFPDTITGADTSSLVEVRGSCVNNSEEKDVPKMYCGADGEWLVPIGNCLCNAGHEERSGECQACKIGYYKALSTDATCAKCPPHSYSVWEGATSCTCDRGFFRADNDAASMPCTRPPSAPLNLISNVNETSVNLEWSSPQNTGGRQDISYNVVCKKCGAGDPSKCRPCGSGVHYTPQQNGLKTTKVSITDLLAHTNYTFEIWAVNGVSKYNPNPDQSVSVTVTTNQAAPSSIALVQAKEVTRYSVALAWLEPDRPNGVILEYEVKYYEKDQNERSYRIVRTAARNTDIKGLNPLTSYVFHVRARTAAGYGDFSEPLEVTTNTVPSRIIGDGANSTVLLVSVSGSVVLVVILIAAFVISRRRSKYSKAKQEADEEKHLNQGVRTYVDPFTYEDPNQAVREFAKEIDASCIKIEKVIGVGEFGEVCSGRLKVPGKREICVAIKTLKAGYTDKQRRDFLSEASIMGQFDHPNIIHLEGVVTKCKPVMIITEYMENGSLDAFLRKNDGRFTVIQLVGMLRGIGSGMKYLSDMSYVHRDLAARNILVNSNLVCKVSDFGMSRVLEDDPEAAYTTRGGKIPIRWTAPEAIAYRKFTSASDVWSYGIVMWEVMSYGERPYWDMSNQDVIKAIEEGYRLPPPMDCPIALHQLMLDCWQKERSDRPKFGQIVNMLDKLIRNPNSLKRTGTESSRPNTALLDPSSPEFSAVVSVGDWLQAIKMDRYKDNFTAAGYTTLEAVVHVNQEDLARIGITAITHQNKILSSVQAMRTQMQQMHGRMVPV

[7] = molecular target: Fibroblast growth factor receptor 4 (Homo sapiens) (UniProt P22455); assay: Binding affinity to wild-type human partial length FGFR4 (G402 to E713 residues) expressed in bacterial expression system assessed as residual binding level at 10 uM by Kinomescan method relative to control
Chain of Fibroblast growth factor receptor 4 (Homo sapiens) (P22455 22-802 limits assumed): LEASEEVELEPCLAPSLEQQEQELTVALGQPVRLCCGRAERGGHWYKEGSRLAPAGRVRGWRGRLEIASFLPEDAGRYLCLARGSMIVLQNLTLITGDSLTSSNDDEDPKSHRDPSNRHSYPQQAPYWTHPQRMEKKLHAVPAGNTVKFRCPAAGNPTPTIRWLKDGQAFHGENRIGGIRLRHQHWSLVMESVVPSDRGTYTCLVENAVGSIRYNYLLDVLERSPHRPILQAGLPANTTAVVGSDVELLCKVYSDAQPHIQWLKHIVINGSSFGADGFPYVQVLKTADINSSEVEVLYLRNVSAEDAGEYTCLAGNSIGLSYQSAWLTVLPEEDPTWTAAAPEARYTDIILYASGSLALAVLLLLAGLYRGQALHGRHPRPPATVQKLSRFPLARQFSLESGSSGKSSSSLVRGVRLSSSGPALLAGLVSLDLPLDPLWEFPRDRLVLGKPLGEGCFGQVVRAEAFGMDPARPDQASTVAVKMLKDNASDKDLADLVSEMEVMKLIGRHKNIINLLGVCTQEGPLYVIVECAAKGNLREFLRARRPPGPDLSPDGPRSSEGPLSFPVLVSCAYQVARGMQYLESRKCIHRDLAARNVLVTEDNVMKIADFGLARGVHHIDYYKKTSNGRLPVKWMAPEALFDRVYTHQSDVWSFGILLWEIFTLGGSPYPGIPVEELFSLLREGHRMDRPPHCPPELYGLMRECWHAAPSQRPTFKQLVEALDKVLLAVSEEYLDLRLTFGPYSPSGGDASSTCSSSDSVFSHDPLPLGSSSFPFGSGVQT

[8] = molecular target: Interleukin-1 receptor-associated kinase 3 (Homo sapiens) (UniProt Q9Y616); assay: Binding affinity to wild-type human partial length IRAK3 (V147 to E596 residues) expressed in bacterial expression system assessed as residual binding level at 10 uM by Kinomescan method relative to control
[9] = tested on: Mast/stem cell growth factor receptor Kit (Homo sapiens), P10721 [A829P]; assay: Binding affinity to human partial length KIT A829P mutant (I571 to D952 residues) expressed in mammalian expression system assessed as residual binding level at 10 uM by Kinomescan method relative to control
[10] = molecular target: Mitogen-activated protein kinase kinase kinase kinase 2 (Homo sapiens) (UniProt Q12851); assay: Binding affinity to wild-type human partial length MAP4K2 (M1 to G318 residues) expressed in mammalian expression system assessed as residual binding level at 10 uM by Kinomescan method relative to control
[11] = molecular target: Mitogen-activated protein kinase kinase kinase kinase 4 (Homo sapiens) (UniProt O95819); assay: Binding affinity to wild-type human partial length MAP4K4 (M1 to R310 residues) expressed in bacterial expression system assessed as residual binding level at 10 uM by Kinomescan method relative to control
[12] = molecular target: MAP kinase-activated protein kinase 2 (Homo sapiens) (UniProt P49137); assay: Binding affinity to wild-type human partial length MAPKAPK2 (V48 to D345 residues) expressed in bacterial expression system assessed as residual binding level at 10 uM by Kinomescan method relative to control
Chain of MAP kinase-activated protein kinase 2 (Homo sapiens) (P49137 whole entry, looked up, the tested form may be a part): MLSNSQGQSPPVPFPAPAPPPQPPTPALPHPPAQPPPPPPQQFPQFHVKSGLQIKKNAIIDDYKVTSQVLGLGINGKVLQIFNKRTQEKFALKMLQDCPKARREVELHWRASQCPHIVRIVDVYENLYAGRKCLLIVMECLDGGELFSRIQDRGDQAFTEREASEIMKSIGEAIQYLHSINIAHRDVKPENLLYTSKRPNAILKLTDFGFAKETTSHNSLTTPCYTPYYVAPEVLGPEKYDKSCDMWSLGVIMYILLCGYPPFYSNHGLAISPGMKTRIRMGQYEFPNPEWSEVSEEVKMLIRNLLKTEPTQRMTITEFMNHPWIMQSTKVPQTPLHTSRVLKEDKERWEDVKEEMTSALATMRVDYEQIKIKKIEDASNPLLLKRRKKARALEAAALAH

[13] = molecular target: Myosin light chain kinase, smooth muscle (Homo sapiens) (UniProt Q15746); assay: Binding affinity to wild-type human full length MYLK (M854 to E1845 residues) expressed in mammalian expression system assessed as residual binding level at 10 uM by Kinomescan method relative to control
[14] = molecular target: Serine/threonine-protein kinase OSR1 (Homo sapiens) (UniProt O95747); assay: Binding affinity to wild-type human full length OSR1 (M1 to S527 residues) expressed in mammalian expression system assessed as residual binding level at 10 uM by Kinomescan method relative to control
[15] = molecular target: Serine/threonine-protein kinase PAK 3 (Homo sapiens) (UniProt O75914); assay: Binding affinity to wild-type human full length PAK3 (M1 to R544 residues) expressed in bacterial expression system assessed as residual binding level at 10 uM by Kinomescan method relative to control
[16] = molecular target: 3-phosphoinositide-dependent protein kinase 1 (Homo sapiens) (UniProt O15530); assay: Binding affinity to wild-type human full length PDPK1 (M1 to Q556 residues) expressed in bacterial expression system assessed as residual binding level at 10 uM by Kinomescan method relative to control
[17] = tested on: Phosphatidylinositol 4,5-bisphosphate 3-kinase catalytic subunit alpha isoform (Homo sapiens), P42336 [E545K]; assay: Binding affinity to human partial length PIK3CA E545K mutant (R108 to N1068 residues) expressed in mammalian expression system assessed as residual binding level at 10 uM by Kinomescan method relative to control
[18] = molecular target: Serine/threonine-protein kinase SIK3 (Homo sapiens) (UniProt Q9Y2K2); assay: Binding affinity to wild-type human partial length QSK (A90 to L395 residues) expressed in mammalian expression system assessed as residual binding level at 10 uM by Kinomescan method relative to control
[19] = molecular target: Ribosomal protein S6 kinase alpha-1 (Homo sapiens) (UniProt Q15418); assay: Binding affinity to wild-type human partial length C- terminal RSK1 kinase domain 2 (P360 to L681 residues) expressed in bacterial expression system assessed as residual binding level at 10 uM by Kinomescan method relative to control
[20] = molecular target: Uncharacterized serine/threonine-protein kinase SBK3 (Homo sapiens) (UniProt P0C264); assay: Binding affinity to wild-type human partial length SgK110 (L22 to R329 residues) expressed in bacterial expression system assessed as residual binding level at 10 uM by Kinomescan method relative to control
Chain of Uncharacterized serine/threonine-protein kinase SBK3 (Homo sapiens) (P0C264 whole entry, the tested form may be a part): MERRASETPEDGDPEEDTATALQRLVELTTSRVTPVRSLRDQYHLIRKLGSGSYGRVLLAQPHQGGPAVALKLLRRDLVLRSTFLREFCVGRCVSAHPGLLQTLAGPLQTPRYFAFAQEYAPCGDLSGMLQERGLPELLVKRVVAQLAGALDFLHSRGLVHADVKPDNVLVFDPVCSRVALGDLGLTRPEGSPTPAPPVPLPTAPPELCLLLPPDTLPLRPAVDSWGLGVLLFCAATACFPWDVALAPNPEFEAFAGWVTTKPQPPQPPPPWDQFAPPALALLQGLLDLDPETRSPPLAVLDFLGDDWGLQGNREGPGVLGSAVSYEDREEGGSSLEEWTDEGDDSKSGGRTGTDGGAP

[21] = molecular target: Non-receptor tyrosine-protein kinase TYK2 (Homo sapiens) (UniProt P29597); assay: Binding affinity to wild-type human partial length TYK2 JH1 catalytic domain (V877 to C1187 residues) expressed in mammalian expression system assessed as residual binding level at 10 uM by Kinomescan method relative to control
Chain of Non-receptor tyrosine-protein kinase TYK2 (Homo sapiens) (P29597 whole entry, the tested form may be a part): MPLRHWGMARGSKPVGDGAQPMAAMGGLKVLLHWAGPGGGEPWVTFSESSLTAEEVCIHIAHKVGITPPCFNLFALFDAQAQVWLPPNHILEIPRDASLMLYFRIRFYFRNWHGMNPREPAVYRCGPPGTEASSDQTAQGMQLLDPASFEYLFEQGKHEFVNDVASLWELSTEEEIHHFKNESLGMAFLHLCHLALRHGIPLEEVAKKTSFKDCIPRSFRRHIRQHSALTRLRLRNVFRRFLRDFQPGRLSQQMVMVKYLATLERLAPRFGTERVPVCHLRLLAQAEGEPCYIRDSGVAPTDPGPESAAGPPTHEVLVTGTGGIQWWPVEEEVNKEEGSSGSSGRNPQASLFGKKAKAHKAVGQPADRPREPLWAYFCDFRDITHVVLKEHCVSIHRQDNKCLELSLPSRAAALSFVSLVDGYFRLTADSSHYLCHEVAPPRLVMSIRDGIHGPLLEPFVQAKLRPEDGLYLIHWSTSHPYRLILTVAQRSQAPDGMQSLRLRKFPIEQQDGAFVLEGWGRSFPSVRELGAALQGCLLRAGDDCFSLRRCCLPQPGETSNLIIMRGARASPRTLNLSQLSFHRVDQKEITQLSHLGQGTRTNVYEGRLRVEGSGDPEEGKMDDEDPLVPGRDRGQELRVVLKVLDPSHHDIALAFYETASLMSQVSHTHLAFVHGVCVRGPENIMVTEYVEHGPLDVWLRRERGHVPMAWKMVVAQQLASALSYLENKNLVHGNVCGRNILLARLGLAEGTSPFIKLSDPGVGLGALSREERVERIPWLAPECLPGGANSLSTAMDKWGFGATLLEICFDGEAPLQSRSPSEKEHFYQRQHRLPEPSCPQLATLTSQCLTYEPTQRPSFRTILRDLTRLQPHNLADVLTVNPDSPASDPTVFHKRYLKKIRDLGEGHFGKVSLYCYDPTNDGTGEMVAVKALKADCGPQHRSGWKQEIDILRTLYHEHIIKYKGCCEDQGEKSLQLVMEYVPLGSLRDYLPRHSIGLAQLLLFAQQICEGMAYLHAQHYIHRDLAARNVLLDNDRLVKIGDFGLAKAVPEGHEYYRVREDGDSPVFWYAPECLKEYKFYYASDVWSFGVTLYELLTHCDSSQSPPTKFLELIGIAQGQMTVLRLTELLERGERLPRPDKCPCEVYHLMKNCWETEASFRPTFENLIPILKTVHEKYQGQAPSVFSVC

[22] = molecular target: Serine/threonine-protein kinase ULK3 (Homo sapiens) (UniProt Q6PHR2); assay: Binding affinity to wild-type human partial length ULK3 (M1 to Q290 residues) expressed in mammalian expression system assessed as residual binding level at 10 uM by Kinomescan method relative to control
[23] = molecular target: Wee1-like protein kinase (Homo sapiens) (UniProt P30291); assay: Binding affinity to wild-type human partial length WEE1 (M291 to K575 residues) expressed in bacterial expression system assessed as residual binding level at 10 uM by Kinomescan method relative to control
[24] = molecular target: Tyrosine-protein kinase Yes (Homo sapiens) (UniProt P07947); assay: Binding affinity to wild-type human partial length YES (T257 to L543 residues) expressed in bacterial expression system assessed as residual binding level at 10 uM by Kinomescan method relative to control
Chain of Tyrosine-protein kinase Yes (Homo sapiens) (P07947 2-543 limits assumed): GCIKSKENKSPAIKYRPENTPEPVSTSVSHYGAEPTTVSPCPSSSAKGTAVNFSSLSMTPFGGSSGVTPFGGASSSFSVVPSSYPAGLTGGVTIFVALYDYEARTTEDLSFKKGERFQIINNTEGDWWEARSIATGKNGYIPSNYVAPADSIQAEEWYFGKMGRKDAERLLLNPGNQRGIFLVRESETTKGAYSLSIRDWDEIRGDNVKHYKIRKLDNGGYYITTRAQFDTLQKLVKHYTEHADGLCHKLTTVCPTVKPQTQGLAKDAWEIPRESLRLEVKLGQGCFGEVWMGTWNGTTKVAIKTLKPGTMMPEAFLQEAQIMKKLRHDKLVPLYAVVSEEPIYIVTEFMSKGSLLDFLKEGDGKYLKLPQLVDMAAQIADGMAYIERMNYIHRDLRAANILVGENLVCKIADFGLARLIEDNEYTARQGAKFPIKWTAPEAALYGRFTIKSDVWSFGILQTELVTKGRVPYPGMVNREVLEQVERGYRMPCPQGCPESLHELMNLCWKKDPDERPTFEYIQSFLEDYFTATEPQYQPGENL

CC(C)N1C(=O)C(NCCCN(C)C)=C(c2cn(C)c3ccccc23)C1=O.Cl
Activity [1]: 98% | Activity [2]: 83% | Activity [3]: 94% | Activity [4]: 88% | Activity [5]: 100% | Activity [6]: 100% | Activity [7]: 100% | Activity [8]: 85% | Activity [9]: 100% | Activity [10]: 85% | Activity [11]: 95% | Activity [12]: 94% | Activity [13]: 75% | Activity [14]: 77% | Activity [15]: 100% | Activity [16]: 89% | Activity [17]: 93% | Activity [18]: 93% | Activity [19]: 100% | Activity [20]: 98% | Activity [21]: 82% | Activity [22]: 79% | Activity [23]: 100% | Activity [24]: 100%
